Experimental data from paper PMC8711299, “Rational Designed Hybrid Peptides Show up to a 6-Fold Increase in Antimicrobial Activity and Demonstrate Different Ultrastructural Changes as the Parental Peptides Measured by BioSAXS” (Frontiers in Pharmacology, 2021).
≈ marks a conversion by molar mass, not a printed value. Positions of bridges follow the written chain, without caps; N, C: chain ends. Residues, ends and D or L forms follow the SMILES beside them. No end group written: not given here.

Legend:
E. coli [1] = assay: MIC of standard antibiotics against E. coli (BioSAXS comparison); format: cell-based, Escherichia coli; settings: used at 3x MIC, 240 min incubation, for BioSAXS
Source text: To discuss the obtained results in the context of conventional antibiotics, compared the peptides to three antibiotics, tigecycline (bacteriostatic activity by binding to the […] ribosomal subunit of the bacterial ribosome), chloramphenicol (bacteriostatic activity by binding to the […] ribosomal subunit of the bacterial ribosome), and rifampicin (bactericidal activity by inhibiting the DNA-dependent RNA polymerase activity), see Figure 5. […] As the antibiotics have slower kill kinetics than the AMPs, 240 min incubation time was used. […] The PCA values of Bac5-v291 and hyP7B5GK deviate strongly from the untreated controls and the standard antibiotics. The PCA values of peptides hyP7B5Cys and optP7 are nearest to chloramphenicol.

E. coli [2] = format: cell-based, Escherichia coli
Source text: (§1) In this project the following bacterial strains were used: 1) methicillin-resistant Staphylococcus aureus (S. aureus) HO 5096 0412 (a neonatal infection isolate, isolated in Ipswich, England in 2005, obtained from Jody Lindsay (St. George’s, University of London), 2) Escherichia coli (E. coli, UB1005, F-, LAM-, gyrA37, relA1, spoT1, metB1, LAMR) used solely for transmission electron microscopy, E. coli (ATCC 25922), 3) Pseudomonas aeruginosa PAO1 obtained from Dr Robert E.W. Hancock (Department of Microbiology and Immunology, University of British Columbia).
(§2) Mueller-Hinton broth (MHb) (Merck, Life Science UK Limited, Dorset, UK)) was prepared concurring to the manufacturer’s directions was used to grow the bacterial strains. Liquid bacterial cultures were incubated at 37°C for 18–20 h on a shaker, bacterial culture on solid media was incubated for 18–24 h at 37°C.
(§3) A broth microdilution assay was applied to determine the minimum inhibitory concentrations (MIC) in MHb for both, using 5 × 10^5 CFU/ml (MICs in Table 1) and 10^8 CFU/ml (BioSAXS and electron microscopy, values in Table 2). A detailed description of the method can be found in the open-source publication by von Gundlach et al. (von Gundlach et al., 2019a).

human red blood cells = format: cell-based; settings: for HC50 (peptide concentration needed to induce haemolysis in human red blood cells at 50%): red cells of human, 1 h
Procedure: The protocol to determine the haemolytic activity of the peptides and HC50 values were described previously ([Grimsey et al., 2020]). Briefly, human blood was washed and diluted with PBS (4% v/v) and incubated with a pre-made dilution series of the peptides and incubated for 1 h at 37 C. The 100% haemolysis value was achieved by incubation with Triton X (1% final concentration). Haemoglobin was measured at 414 and 546 nm using an ELISA plate reader. HC50 values were determined using the Prism software (GraphPad).

[3] = tested on: Pseudomonas aeruginosa PAO1; format: cell-based
Source text: as §1, §2, §3

[4] = tested on: methicillin-resistant Staphylococcus aureus HO 5096 0412 (MRSA); format: cell-based; settings: methicillin-resistant HO 5096 0412
Source text: as §1, §2, §3

E. coli [5] = format: cell-based, Escherichia coli; remark: listed apart in the source
Source text: as §3
Quite early on in our drug development process, we have selected optP7 over optP1 for a slightly better MIC against P. aeruginosa. Further investigations were performed with peptide optP7 only. Firstly, we investigated E. coli cells treated with optP7 by transmission electron microscopy (TEM) to get a better understanding of the mode of action/ultrastructural changes of the peptides on E. coli, see Figure 1. In order to achieve a sufficient number of bacteria to form a pellet, a bacterial concentration of 1 × 10^8 CFU/ml was used. […] The outer membrane of E. coli of the untreated sample appears thick and relatively smooth (Figure 1, arrow 1), whereas for the peptide treated one, it was damaged (Figure 1, arrow 2) and blebbing was visible (Figure 1, arrow 3), where lipopolysaccharides (LPS) form small vesicles and are shed from the cell. The inner membrane for both, the untreated control (Figure 1A, arrow 4), and the peptide treated E. coli (Figure 1, arrow 5) seemed to remain intact and no spillage of the cytosol content was observed. The DNA in untreated bacterial cells comprised dispersed fibrils in the cytoplasm, see Figure 1, dotted lines. The bacterial DNA is concentrated in a ‘DNA–plasm’ called the nucleoid ([Ohniwa et al., 2007]). The peptide optP7 creates an enlarged and spherical nucleoid, dotted line in Figure 1., typically seen in DNA-dependent RNA polymerase inhibitors and protein synthesis inhibitors. Compared to the untreated bacteria (Figure 1, arrow 6), the peptide treated ones show more pronounced granular substructures (Figure 1, arrow 7) in the cytosol could indicate aggregation of cytosolic proteins. These substructures were observed before using small AMPs ([Von Gundlach et al., 2016a], [2019]).
Small-angle X-ray scattering for biological samples (BioSAXS) on the P12 beamline can be used to measure ultrastructural changes within the bacteria in the range between 2 and 157 nm, from which we used the range from 20 to 120 nm for analysis of the bacteria after treatment with the antimicrobial peptides. […] The MICs for the selected peptides against E. coli at 1 × 10^8 CFU/ml were determined (Table 2). […] To quantify the subtle changes between the different treatments we used a PCA analysis using SciXMiner and the “Peptide Extension” tool ([Mikut, 2010]; [Mikut et al., 2017]) (Figure 4). […]

O=C(N[C@H](CO)[C@H](O)c1ccc([N+](=O)[O-])cc1)C(Cl)Cl [chloramphenicol]
MIC against E. coli (standard antibiotics) (E. coli [1]): 8 µg/mL

CC[C@H](C)[C@H](NC(=O)[C@H](Cc1c[nH]c2ccccc12)NC(=O)[C@H](CCCNC(=N)N)NC(=O)[C@@H](NC(=O)[C@H](CCCNC(=N)N)NC(=O)[C@H](CCCNC(=N)N)NC(=O)[C@H](CCCCN)NC(=O)CNC(=O)[C@H](CCCCN)NC(=O)[C@@H]1CSSC[C@H](NC(=O)[C@H](CCCCN)NC(=O)CNC(=O)[C@H](CCCCN)NC(=O)[C@H](CCCNC(=N)N)NC(=O)[C@H](Cc2c[nH]c3ccccc23)NC(=O)[C@H](Cc2ccccc2)NC(=O)[C@@H]2CCCN2C(=O)[C@@H]2CCCN2C(=O)[C@H](CCCNC(=N)N)NC(=O)[C@@H](NC(=O)[C@@H]2CCCN2C(=O)[C@H](CCCNC(=N)N)NC(=O)[C@H](CCCNC(=N)N)NC(=O)[C@H](CCCNC(=N)N)NC(=O)[C@@H](NC(=O)[C@@H]2CCCN2C(=O)[C@H](CCCNC(=N)N)NC(=O)[C@H](CCCNC(=N)N)NC(=O)[C@H](Cc2c[nH]c3ccccc23)NC(=O)[C@@H](N)CCCNC(=N)N)[C@@H](C)CC)[C@@H](C)CC)C(=O)N[C@@H](CO)C(=O)N[C@@H](CO)C(=O)N1)C(C)C)C(=O)N[C@H](C(=O)N[C@@H](Cc1c[nH]c2ccccc12)C(N)=O)[C@@H](C)CC [hyP7B5Cys] (H-RWRRPIRRRPIRPPFWRKGKCSSCKGKRRVRWIIW-NH2; disulfide 21-24)
MIC E. coli (E. coli [2]): 0.6 µM (≈ 2.74 µg/mL) | Therapeutic window HC50/MIC(MRSA) (human red blood cells): >102 | HC50 (peptide concentration needed to induce haemolysis in human red blood cells at 50%) (human red blood cells): 102 µM | MIC PA (P. aeruginosa) [3]: 2 µM (≈ 9.15 µg/mL) | MIC MRSA [4]: 1 µM (≈ 4.57 µg/mL) | MIC E. coli at 1 × 10^8 CFU/ml (E. coli [5]): 4 µM

CO[C@H]1/C=C/O[C@@]2(C)Oc3c(C)c(O)c4c(O)c(c(/C=N/N5CCN(C)CC5)c(O)c4c3C2=O)NC(=O)/C(C)=C\C=C\[C@H](C)[C@H](O)[C@@H](C)[C@@H](O)[C@@H](C)[C@H](OC(C)=O)[C@@H]1C [rifampicin]
MIC against E. coli (standard antibiotics) (E. coli [1]): 15 µg/mL

CN(C)c1cc(NC(=O)CNC(C)(C)C)c(O)c2c1C[C@H]1C[C@H]3[C@H](N(C)C)C(O)=C(C(N)=O)C(=O)[C@@]3(O)C(O)=C1C2=O [tigecycline]
MIC against E. coli (standard antibiotics) (E. coli [1]): 4 µg/mL

KIILRIRWR-NH2 [optP1]
MIC E. coli (E. coli [2]): 1 µM | Therapeutic window HC50/MIC(MRSA) (human red blood cells): 137 | HC50 (peptide concentration needed to induce haemolysis in human red blood cells at 50%) (human red blood cells): 205 µM | MIC PA (P. aeruginosa) [3]: 6 µM | MIC MRSA [4]: 1.5 µM

KIILRIRWRGGGVRKPPYLPRPRPRPL-NH2 [hyP1CoG1]
MIC E. coli (E. coli [2]): 1 µM | Therapeutic window HC50/MIC(MRSA) (human red blood cells): >62.8 | HC50 (peptide concentration needed to induce haemolysis in human red blood cells at 50%) (human red blood cells): >157 µM | MIC PA (P. aeruginosa) [3]: 1 µM | MIC MRSA [4]: 2.5 µM

KRRVRWIIW-NH2 [optP7]
MIC E. coli (E. coli [2]): 1.5 µM | Therapeutic window HC50/MIC(MRSA) (human red blood cells): >32.5 | HC50 (peptide concentration needed to induce haemolysis in human red blood cells at 50%) (human red blood cells): >195 µM | MIC PA (P. aeruginosa) [3]: 3 µM | MIC MRSA [4]: 6 µM | MIC E. coli at 1 × 10^8 CFU/ml (E. coli [5]): 14 µM

KRRVRWIIWGGGVRKPPYLPRPRPRPL-NH2 [hyP7CoG2]
MIC E. coli (E. coli [2]): 2.5 µM | Therapeutic window HC50/MIC(MRSA) (human red blood cells): >30.8 | HC50 (peptide concentration needed to induce haemolysis in human red blood cells at 50%) (human red blood cells): >154 µM | MIC PA (P. aeruginosa) [3]: 2.5 µM | MIC MRSA [4]: 5 µM

RWRRPIRRRPIRPPFWR-NH2 [Bac5-v291]
MIC E. coli (E. coli [2]): 1.7 µM | Therapeutic window HC50/MIC(MRSA) (human red blood cells): >10.3 | HC50 (peptide concentration needed to induce haemolysis in human red blood cells at 50%) (human red blood cells): >278 µM | MIC PA (P. aeruginosa) [3]: 27 µM | MIC MRSA [4]: 27 µM | MIC E. coli at 1 × 10^8 CFU/ml (E. coli [5]): 1.1 µM

RWRRPIRRRPIRPPFWRGGGKRRVRWIIW-NH2 [hyP7B5G]
MIC E. coli (E. coli [2]): 2 µM | Therapeutic window HC50/MIC(MRSA) (human red blood cells): 51 | HC50 (peptide concentration needed to induce haemolysis in human red blood cells at 50%) (human red blood cells): 102 µM | MIC PA (P. aeruginosa) [3]: 2 µM | MIC MRSA [4]: 2 µM

RWRRPIRRRPIRPPFWRKGKGKGKRRVRWIIW-NH2 [hyP7B5GK]
MIC E. coli (E. coli [2]): 1 µM | Therapeutic window HC50/MIC(MRSA) (human red blood cells): >120 | HC50 (peptide concentration needed to induce haemolysis in human red blood cells at 50%) (human red blood cells): >120 µM | MIC PA (P. aeruginosa) [3]: 2 µM | MIC MRSA [4]: 1 µM | MIC E. coli at 1 × 10^8 CFU/ml (E. coli [5]): 4 µM

RWRRPIRRRPIRPPFWRKKKKRRVRWIIW-NH2 [hyP7B5K]
MIC E. coli (E. coli [2]): 2 µM | Therapeutic window HC50/MIC(MRSA) (human red blood cells): 41 | HC50 (peptide concentration needed to induce haemolysis in human red blood cells at 50%) (human red blood cells): 82 µM | MIC PA (P. aeruginosa) [3]: 2 µM | MIC MRSA [4]: 2 µM

VRKPPYLPRPRPRPL-NH2 [consP1]
MIC E. coli (E. coli [2]): 35 µM | HC50 (peptide concentration needed to induce haemolysis in human red blood cells at 50%) (human red blood cells): >139 µM | MIC PA (P. aeruginosa) [3]: >139 µM | MIC MRSA [4]: >139 µM

VRKPPYLPRPRPRPLGGGKIILRIRWR-NH2 [hyP1CoG2]
MIC E. coli (E. coli [2]): 1 µM | Therapeutic window HC50/MIC(MRSA) (human red blood cells): >62.8 | HC50 (peptide concentration needed to induce haemolysis in human red blood cells at 50%) (human red blood cells): >157 µM | MIC PA (P. aeruginosa) [3]: 2.5 µM | MIC MRSA [4]: 2.5 µM

VRKPPYLPRPRPRPLGGGKRRVRWIIW-NH2 [hyP7CoG1]
MIC E. coli (E. coli [2]): 1 µM | Therapeutic window HC50/MIC(MRSA) (human red blood cells): >30.8 | HC50 (peptide concentration needed to induce haemolysis in human red blood cells at 50%) (human red blood cells): >154 µM | MIC PA (P. aeruginosa) [3]: 5 µM | MIC MRSA [4]: 5 µM
